Source: patent US5643926A, “Pyrazolidinone CCK and gastrin antagonists and pharmaceutical formulations thereof” (priority 1994, dated 1997)
One block for each molecule: values may come before it.

What was measured:
[1] = molecular target: T1, CCK receptor, mouse brain membranes (Mus musculus, UniProt P56481); assay: Brain CCK receptor binding (displacement of 125I-CCK-8 sulfate, mouse brain membranes)
T1 construct: from tissue; host or cells: forebrain membranes of male CF-1 mice
T1 sequence (P56481 1-453): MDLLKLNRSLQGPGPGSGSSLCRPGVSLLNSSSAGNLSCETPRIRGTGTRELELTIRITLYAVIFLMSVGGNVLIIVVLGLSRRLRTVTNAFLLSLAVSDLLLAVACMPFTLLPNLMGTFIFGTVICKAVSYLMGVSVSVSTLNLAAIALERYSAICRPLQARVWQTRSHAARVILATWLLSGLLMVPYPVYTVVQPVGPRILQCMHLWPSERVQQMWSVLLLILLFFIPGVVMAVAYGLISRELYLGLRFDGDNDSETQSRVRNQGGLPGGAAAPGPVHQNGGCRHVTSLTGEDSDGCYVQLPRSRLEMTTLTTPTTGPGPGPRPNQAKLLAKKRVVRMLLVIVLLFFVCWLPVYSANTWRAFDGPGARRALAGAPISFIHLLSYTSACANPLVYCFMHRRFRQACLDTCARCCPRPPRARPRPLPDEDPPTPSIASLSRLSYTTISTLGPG
Description: (§1) Test Procedures for CCK and Gastrin Receptor Binding (IC50)
Brain CCK receptor binding was performed using mouse brain membranes according to the method of Chang and Lotti (Proc. Natl. Acad. Sci. 83: 4923-4926, 1986). Male CF-1 mice, 23-25 g were sacrificed by cervical dislocation, the forebrain removed and placed in ice cold 50 mM Tris buffer, pH 7.4. The tissue was homogenized in 100 volumes of the Tris buffer with a Brinkman Polytron or Tekmar Tissumizer and then centrifuged at 40,000 g for 10 min. Pellets were resuspended in Tris buffer, centrifuged as above and then resuspended in 100 volumes of assay buffer, pH 6.5 (20 mM N-2-hydroxyethyl-piperazine-N'-2-ethane sulfonic acid (HEPES), 1 mM ethylene glycol bis(2-aminoethyl ether-N,N,N',N'-tetraaceticacid) (EGTA), 5 mM MgCl2, 130 mM NaCl, and 0.25 mg/ml bacitracin). The binding assay consisted of 50 μL of compound (or buffer for total binding), 50 μL of ^125 I-CCK-8 sulfate (20 pM) (Amersham IM-159), 200 μL of assay buffer and 200 μL of homogenate (80-120 μg protein). The samples were incubated at room temperature (25°) for 2 hours, and they were then filtered through GF/B glass fiber filters (soaked in wash buffer for 2 hours before use) using a 48 well Brandel cell harvester designed for receptor binding. The filters were washed twice with 3 ml of 50 mM Tris buffer, pH 7.4, containing 0.01% BSA and then counted for radioactivity in plastic tubes with a Micromedic 10/600 automatic gamma counter.
Compounds were dissolved in dimethyl sulfoxide (DMSO) at a concentration of 10 mM and then further diluted with assay buffer. The concentration of DMSO in the incubation was 0.1% or less and had no effect on the assay at that level. IC-50 values of displacement curves were determined using 7 concentrations of compound and were calculated using the ALLFIT computer program of DeLean, Munson and Rodbard (Am. J. Physiol. 235: E97-E102, 1978). Non-specific binding was determined as the displacement of the radioligand by 100 nM CCK-8 sulfate.
Table III below summarizes representative CCK and gastrin-binding tests results for exemplified compounds in accordance with this invention.

Titration pKa = assay type: physicochemical; settings: 2:1 DMF:H2O as solvent
Excerpt: Tetrahydrofuran (THF) was dried by distillation from sodium/benzophenone.

[2] = molecular target: T2, peripheral type CCK receptors in rat pancreas (Rattus norvegicus, UniProt P30551); assay: Binding to peripheral type CCK receptors in rat pancreas (displacement of 3H-L-364,718); settings: read-out: Pancreas CCK receptor binding, Percent Inhibition at 10 μM
T2 construct: Pancreas was obtained from male Sprague-Dawley rats; from tissue; host or cells: pancreas membranes of male Sprague-Dawley rats
T2 sequence (P30551 1-444): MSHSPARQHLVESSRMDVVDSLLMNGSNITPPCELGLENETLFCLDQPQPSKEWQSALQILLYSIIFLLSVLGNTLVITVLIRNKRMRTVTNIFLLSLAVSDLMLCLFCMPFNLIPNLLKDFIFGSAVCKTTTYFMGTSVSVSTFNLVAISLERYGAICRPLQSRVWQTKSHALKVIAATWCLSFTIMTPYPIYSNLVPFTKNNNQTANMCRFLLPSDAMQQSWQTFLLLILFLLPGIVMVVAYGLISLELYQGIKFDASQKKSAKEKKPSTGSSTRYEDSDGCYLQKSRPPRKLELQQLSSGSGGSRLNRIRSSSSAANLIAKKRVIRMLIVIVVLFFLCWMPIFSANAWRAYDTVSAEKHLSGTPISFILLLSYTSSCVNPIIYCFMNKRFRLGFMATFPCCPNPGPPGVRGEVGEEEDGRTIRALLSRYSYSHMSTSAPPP
Description: as §1
Binding to peripheral type CCK receptors in rat pancreas was done according to the method of Chang et al. (Mol. Pharmacol. 30: 212-217, 1986) using ^3 H-L364, 718. Pancreas was obtained from male Sprague-Dawley rats, 150-200 g, after decapitation, and dissected free from adipose and connective tissue. The tissue was homogenized in 30 volumes of 50 mM Tris buffer, pH 7.4 and centrifuged at 40,000 g for 10 min. The tissue pellet was washed by resuspension and centrifugation as described above. The final pellet was suspended in 500 volumes of assay buffer (50 mM Tris buffer, pH 7.4, 5 mM MgCl2, 0.14 mg/ml bacitracin, and 5 mM dithiothreitol) to give a protein concentration of 30-60 μg/200 μl . Reagent volumes for the assay were the same as those used for CCK binding to brain membranes. Tritium labeled L-364,718 (Dupont NEN, NET-971) was used as the ligand at a concentration of 0.4-0.6 nM. The samples were incubated 1 hour at room temperature and then filtered as described for the CCK-brain receptor. Scintillation cocktail was added to the filters which were counted for radioactivity using a Micromedic Taurus automatic liquid scintillation counter.
Compound samples were prepared and IC-50 values were determined as described for the CCK-brain experiments. […]

[3] = molecular target: T3, gastrin receptor, guinea pig stomach mucosal membranes (Cavia porcellus, UniProt H0VZC5); assay: Gastrin binding to guinea pig stomach mucosal membranes (displacement of 125I-gastrin I); settings: guinea pig gastric mucosa
T3 construct: Guinea pig stomach fundus was obtained from male Hartley guinea pigs; from tissue; host or cells: stomach fundus mucosal membranes of male Hartley guinea pigs
T3 sequence (H0VZC5 1-426): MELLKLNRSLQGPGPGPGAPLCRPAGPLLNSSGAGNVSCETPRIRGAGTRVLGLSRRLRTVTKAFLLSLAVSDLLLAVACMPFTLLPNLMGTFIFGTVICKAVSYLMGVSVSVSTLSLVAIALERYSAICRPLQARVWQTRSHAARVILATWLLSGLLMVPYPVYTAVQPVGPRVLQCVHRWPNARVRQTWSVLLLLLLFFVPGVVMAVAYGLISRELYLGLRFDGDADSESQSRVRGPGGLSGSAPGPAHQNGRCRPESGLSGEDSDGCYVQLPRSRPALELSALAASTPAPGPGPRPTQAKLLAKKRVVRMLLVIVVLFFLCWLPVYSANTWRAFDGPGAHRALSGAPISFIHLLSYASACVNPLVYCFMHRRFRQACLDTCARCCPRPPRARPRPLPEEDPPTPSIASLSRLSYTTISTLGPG
Description: as §1
The method used for gastrin binding to guinea pig stomach mucosal membranes was similar to that described by Takeuchi, Speir and Johnson (Am. J. Physiol. 237(3): E284-E294, 1979). Guinea pig stomach fundus was obtained from male Hartley guinea pigs, 300-350 g, and the mucosa was scraped off with a glass slide. The mucosa was homogenized in 50 mM Tris buffer, pH 7.4, containing 1 mM phenylmethanesulfonyl fluoride using a Dounce glass homogenizer, and the suspension was centrifuged at 40,000 g for 10 min. The resulting pellet was resuspended and centrifuged once more, the final pellet was then suspended in 100 ml assay buffer per 1 guinea pig stomach to give a protein concentration of 200-300 μg/200 μl. The assay buffer consisted of 50 mM Tris buffer, pH 7.4, 5 mM MgCl2, 0.14 mg/ml bacitracin, and 1 μg/ml each of leupeptin, chymostatin, aprotinin and pepstatin. Reagent volumes for the assay were the same as those used for CCK binding to brain membranes. […] The samples were incubated 3 hours at room temperature and filtered and counted as described for CCK binding to brain membranes. Compound samples were prepared and IC-50 values were determined as described for the CCK-brain receptor binding. Non-specific binding was determined using 100 nM gastrin I (human synthetic from Sigma Chemical Co.). […]

- Brain CCK receptor binding, Percent Inhibition at 10 μM ([1]; at 10 μM): 67%
Molecule: 1-[(4-Bromophenyl)aminocarbonyl]-2-(O-t-butyl-carboxymethyl)-4,5-diphenyl-3-pyrazolidinone and 1-[(4-bromophenyl)aminocarbonyl]-3-(O-t-butylcarboxymethoxy)-4,5-diphenyl- 2-pyrazoline [Example 11]

- titration pKa (Titration pKa): 4.8
Molecule: 1-[(4-Bromophenyl)aminocarbonyl]-2-carboxymethyl-4,5-diphenyl-3-pyrazolidinone and 1-[(4-bromophenyl)aminocarbonyl]-3-carboxymethoxy-4,5-diphenyl-2-pyrazoline [Example 12]

- IC50 [1]: 1000 nM
Molecule: O=C(O)CN1C(=O)[C@H](c2ccccc2)[C@@H](c2ccccc2)N1C(=O)Nc1ccc(Br)cc1 (relative stereo) [Example 12 (N-), 1-[(4-Bromophenyl)aminocarbonyl]-2-carboxymethyl-4,5-diphenyl-3-pyrazolidinone]

- inhibition at 10 µM [2]: 4%
Molecule: O=C1NN(C(=O)Cc2ccc(C(F)(F)F)cc2)[C@@H](c2ccccc2)[C@@H]1c1ccccc1 (relative stereo) [Example 77]

Molecule: O=C1NN(c2nc3c(Cl)c(Cl)ccc3s2)[C@@H](c2ccccc2)[C@@H]1c1ccccc1 (relative stereo) [Example 86]
- IC50 [1]: 1100 nM

- IC50 [3]: 62 nM
- IC50 [1]: 10 nM
Molecule: O=C1NN(C(=O)Nc2ccc3ccccc3c2)[C@@H](c2ccccc2)[C@@H]1c1ccccc1 (relative stereo) [Example 91]

- inhibition at 10 µM [2]: 47%
Molecule: O=C1NN(C(=O)Nc2ccc(C(F)(F)F)cc2)C(c2ccccc2Cl)C1c1ccccc1 (centres unmarked) [Example 110]
